Experimental data taken from a melting point compilation (Tetko et al.; mined from patent text by program, amines drawn as free bases though some values may be those of a salt).

SMILES	melting point [°C]
CCCCCCC(C)(C)c1cc(O)c2c(c1)oc(=O)c1ccc(O)cc12	103 to 108
CCCCCCCN(O)C(=O)N(C)C	30 to 31
CC(C)(C)OC(=O)N1CCC(NCc2cccc(NC(=O)c3ccc(F)cc3Cl)n2)CC1	79.1
C=C(C)C(=O)Oc1ccc(CNS(C)(=O)=O)cc1	101 to 102
Cc1ccc([C@@H]2c3c(C)c(N4CCC(c5ccc(F)cc5)CC4)c(C)c(C)c3OC2(C)C)cc1	141 to 144
CC(C)c1c(/C=C/C=O)c(-c2ccccc2)c2c3ccccc3cnn12	162 to 164
Cc1c(Cc2cccc(C(F)(F)F)c2)oc2c(-c3cccc(C(=O)O)c3)cccc12	200 to 201
NC(=O)C1(c2ccccc2)CCN(Cc2ccccc2)C1 (stereo unspecified)	88 to 90
CN(C)CCCCOc1ccc2c(=O)cc(-c3ccccc3)oc2c1	95 to 96
CN1C(=O)C(c2ccccc2)(C2CCNCC2)N=C1N (stereo unspecified)	269 to 271
CCOc1nn(-c2ccc(C(F)(F)F)cn2)cc1CCCOc1ccc(CCC(=O)O)cc1O	124 to 125
CCn1ncc2c(N(C)Cc3ccccc3)c3ccccc3nc21	175 to 177
CON(C)C(=O)CC(c1cccc(Br)c1)c1ccccc1C (stereo unspecified)	89
Nc1ncc(C#Cc2ccc(Cl)cc2)c(NCCOCCO)n1	176 to 180
COC(=O)c1ccc(C(=O)N2CCCc3ccccc32)cc1	72 to 74
OC(COCC1CNCCO1)c1ccc2ccccc2c1 (stereo unspecified)	141 to 144
CC(C)CC(=O)N[C@H]1CC[C@H](CCN2CCN(c3nccc4c3CCO4)CC2)CC1	202
COC(=O)c1cccc(OS(=O)(=O)C(F)(F)F)c1O	91.8 to 92.3
COC(=O)CNc1cccc(Cl)c1	75 to 76
COC(=O)C(C(C)=O)C(c1cccc([N+](=O)[O-])c1)C(C(C)=O)C(=O)OC (stereo unspecified)	94 to 96
O=C(Nc1nc(C(F)(F)F)co1)C1c2ccccc2Oc2ccc(Cl)cc21 (racemic)	235
Cc1oc(-c2ccccc2)nc1COc1ccc(CN(O)C(N)=O)c(Cl)c1	145 to 147
COc1cccc(N2CC(=O)N(C)C(=O)N2)c1	120 to 122
O=C(O)COc1ccc(SCCc2ccc(-c3ccc(C(F)(F)F)cc3)cc2)c2c1CCC2	170 to 172
CC(C)OC(=O)c1ncn2c1CN(C)C(=O)c1ccccc1-2	190 to 192
CCC1CCCCN1C(=O)C=Cc1c(-c2ccccc2)nn2ccccc12 (stereo unspecified)	121 to 122

SMILES	melting point [°C]
COc1ccccc1Cc1n[nH]c2c1c(=O)n(-c1ccccc1)c1ncccc21	276 to 277
CNC(=O)CCN1CCC(C(O)(c2ccc(F)cc2)c2ccc(F)cc2)CC1	127 to 129
CCOC(=O)COC(=O)c1cc(NC(=O)OCc2ccccc2)ccc1OCC(=O)OCC	77 to 78
CCCCCC(Oc1ccc(C2=CCCCC2)cc1)C(=O)O (stereo unspecified)	78 to 80
O=C(c1cc(Cl)c(Cl)cc1NS(=O)(=O)c1cccc2nsnc12)N1CCCCC1	178 to 179
CC1=CC2(C)CC3CCCC(C)(C2=O)C13 (stereo unspecified)	46 to 47
N#Cc1nc(SCc2cnn(-c3c(Cl)cc(C(F)(F)F)cc3Cl)n2)n(Cc2ccccc2)c1C#N	132
CC(C)Oc1ccc(-c2ccc3oc(C4CCN(C(=O)OC(C)(C)C)CC4)nc3c2)cc1F	124 to 128
COc1ccc(-c2nc3cccc(OC)c3c(=O)[nH]2)nc1-c1ccc(S(C)=O)cc1 (stereo unspecified)	308 to 310
COc1ccc(C(=O)N2CCN(c3ccc([N+](=O)[O-])c(C=O)c3)CC2)cc1OC	196 to 198
Cc1ccc(O[C@@H]2CNCC[C@H]2O)cc1C (relative stereo)	98 to 99
O=C1CCN2CC3c4ccccc4CCc4cccc(c43)C2C1 (stereo unspecified)	163 to 165
COc1c2c(cc3ccccc13)C(=O)NC2=O	216 to 220
COc1cc(OC)nc(NC(=O)NS(=O)(=O)C(C)c2ccccc2[N+](=O)[O-])n1 (stereo unspecified)	168 to 170
O=C1Nc2cccc(-c3ccc(Cl)cc3Cl)c2/C1=C/c1ccc[nH]1	185 to 187
C#CC1(O)CCC2(C)C(CCC3C2CCC2(C)C(OC)CCC32)C1 (stereo unspecified)	62 to 65
CN(C(=O)OC(C)(C)C)c1cc(Oc2ccc(C#N)cc2)ccc1[N+](=O)[O-]	141 to 143
Cn1c(CCOc2ccc(CC3SC(=O)NC3=O)cc2)nc2cccnc21 (stereo unspecified)	96 to 100
O=c1nc(NC(=S)Nc2ccccc2)c(F)cn1S(=O)(=O)c1ccccc1	205 to 208
Cc1c(C#N)c(-c2ccc(C#N)cc2)c(C)n1Cc1ccc(Cl)c(C(O)C(F)(F)F)c1 (stereo unspecified)	196 to 198
O=C1C[C@@H]2CCC(c3ccccc3)=C[C@@H]2O1 (relative stereo)	90 to 92
Clc1ccccc1C(Oc1ccccc1)C1CNCCO1 (stereo unspecified)	80 to 102
CCCc1c(C(C)=O)c2ccc(C(N)=O)cc2n1Cc1ccccc1Cl	208 to 211
CCCCc1c[nH]c2c(Br)cccc2c1=O	172
CCc1[nH]c2ccc(OC)cc2c1C=O	211 to 212
Cc1cccc(-c2sc3ccc(C(F)(F)F)cc3c2O)c1	124 to 126

SMILES	melting point [°C]
CCCCCCCC(=O)NCCCCO	76 to 77
Cc1cc(I)cc(C)c1Oc1ccc([N+](=O)[O-])c(Nc2ccc(C#N)cc2)n1	162 to 165
S=C(Nc1ccc(Cl)cc1)Nc1ncccc1OCc1c(Cl)cccc1Cl	179 to 180
O=[N+]([O-])c1ccc(C(O)c2ncco2)c(Cl)c1 (stereo unspecified)	158 to 160
CS(=O)(=O)c1ccc(-c2[nH]nc(C(=O)CCCO)c2-c2ccc(C#N)cc2)cc1	169 to 171
Cc1noc(NS(=O)(=O)c2ccccc2-c2ccc(-c3ncco3)cc2Cn2c(=O)oc3ccccc32)c1C	130 to 137
O=C(O)CS(=O)(=O)Nc1ccc(F)cc1F	110 to 112
CCc1nnc2c(O)nc3cc(F)ccc3n12	> 300
Fc1ccc2c(C3CCN(CC4=Cc5cc6c(cc54)OCO6)CC3)noc2c1	125 to 126
Cn1cc(-c2ccc(Cl)c(OC3SCC(O)C(O)C3O)c2)cn1 (stereo unspecified)	158
Cc1ccnc2c(Oc3ccc([N+](=O)[O-])cc3)cccc12	148 to 149
CCCCC(CC)Cn1c(C)cc(C)c(C#N)c1=O (stereo unspecified)	84 to 89
COc1ccc(N2CCN(c3ccc(OC)nc3-c3ccc(N(C)C)cc3)C(C)C2)cc1 (stereo unspecified)	140 to 148
COC(=O)[C@H]1C=C(c2ccccc2)OC(=O)[C@H]1Cc1ccccc1	105 to 106
Cc1cc(O)c(S(=O)(=O)CCC(C)C)c(=O)o1	101 to 102
Cc1ncc2cc(-c3c(Cl)cccc3Cl)c(NC(=O)c3ccco3)nc2n1	228 to 230
CC(C)(CO)NCC(=O)N1C[C@@H](F)C[C@H]1C#N	146 to 148
CCc1nc2ccccc2c(C(=O)OCC(=O)OC(C)(C)C)c1Oc1ccc(-c2ccccc2C#N)cc1	83 to 85
CN1C(O)=C(C(=O)Nc2ccc(Cl)cc2)c2ccsc2S1(=O)=O	202 to 204
O=C(NC(Cc1ccc(C(F)(F)F)cc1)C(O)c1ccc(F)cc1)c1cccc(-c2ccccc2)c1 (stereo unspecified)	165 to 166
N#CCC(=O)NC(C(=O)OC1CCCCC1)c1ccccc1 (stereo unspecified)	114 to 116
COc1cc2nc(N3CCc4ccc([N+](=O)[O-])cc4C3)nc(N)c2cc1OC	135 to 137
CCCc1[nH]c(=O)[nH]c(=O)c1N1CCN(Cc2ccccc2)CC1	233 to 235
O=C(NNc1ccccc1Cl)c1c(F)cccc1Cl	156 to 158
CNS(=O)(=O)Cc1ccc2[nH]cc(CC(=O)O)c2c1	126 to 133
CON(c1ccc([N+](=O)[O-])cc1[N+](=O)[O-])S(=O)(=O)c1ccc(C)cc1	146 to 148

SMILES	melting point [°C]
COc1ccc2c(c1)C(c1ccc(N)cc1)=NNC(=O)C2	167 to 170
C=C1CCN(CC)c2c(CSc3nc4ccccc4[nH]3)cccc21	148 to 149
Cn1nc(-c2c(F)cccc2Cl)nc1-c1cccc([N+](=O)[O-])c1Cl	112 to 114
CN1C(=O)C(c2ccc(OC(F)F)cc2)(c2cccc(CCCC(F)(F)F)c2)N=C1N (stereo unspecified)	70
CCC(=O)c1ccc(-c2ccc(Cl)cc2)o1	66 to 68
CCc1nc(CC(=O)O)no1	58 to 60
CCCc1c2c(c(C(C)(C)C)c(OC(C)=O)c1C(C)(C)C)CC(C)(C)O2	106
CC1(C)CC(=O)C2=C(C1)NC1=C(C(=O)CC(C)(C)C1)C2c1ccc2ccccc2c1	> 300
CC(=O)Nc1c(C#N)cnn1-c1c(Cl)cc(Cl)c(Cl)c1Cl	115
O=C(O)C(=O)c1ccc(OCCOc2ccc([N+](=O)[O-])cc2)cc1	129 to 130
O=C(O)Cc1ccc2c(c1)C(=O)c1cccc(Cl)c1CO2	173 to 176
CCOc1cccc(-c2ccnc(Nc3cccc(OC(F)(F)C(F)F)c3)n2)c1	88 to 96
O=c1[nH]c(=O)n(COc2ccccc2)cc1F	150
Cc1ccc(S(=O)(=O)c2c(N)c3nccn3c3nccnc23)cc1	294 to 295
OC1CSC(Oc2cccnc2-c2ccc(F)cc2)C(O)C1O (stereo unspecified)	110
COCCCNS(=O)(=O)NC(=O)OCc1ccccc1	91 to 93
COc1ccc2c(c1)Cc1c([nH]cnc1=O)N2	> 300
CNC(=O)c1ccc(Nc2nc(Nc3cc4c(cc3OC)CCN(C(COC)COC)CC4)ncc2Cl)c(OC)c1	85 to 97
C#CCOc1cc(-n2c(OC)nc(C(F)(F)F)cc2=O)c(F)cc1Br	136 to 138
CN(C)c1nn(C(=O)Cl)c(=O)n1C	78 to 80
O=C1O[C@@H](Cn2ccnn2)CN1c1ccc(-c2ccc(C3=NOC(C4(O)CCCC4)C3)nc2)c(F)c1 (stereo partly specified)	225
Oc1cccc(CCNCc2ccccc2)c1	86 to 88
Cc1cccc2c1nc(-c1ccccc1[N+](=O)[O-])n2CC(C)O (stereo unspecified)	171 to 172
